Laboratory results taken from patent US20030012820A1, “Compressible guaifenesin compositions, method for making same and method for making compressed guaifenesin dosage forms therefrom” (priority 2001, published 2003).

Legend:
[1] = Particle size distribution by sieve analysis; type: physicochemical
Source text: USP grade guaifenesin powders GP-A, GP-B, GP-C and GP-D having the respective particle size distributions set forth below, were used in the examples. Guaifenesin powder GP-A was made by Rhodia Inc., guaifenesin powders GP-B, GP-C and GP-D were obtained from other commercial sources. In the tables below, the result “% R” for a sample means the amount of sample retained on the corresponding screen size set forth in the table, expressed as a percent by weight of the total sample amount, and the result “% CR” for a sample means the cumulative amount of the sample retained on all screen sizes larger than the corresponding screen size, expressed as a percent by weight of the total sample amount.
(§1) The particle size distribution, bulk density, moisture content and flow properties were measured for each of the compositions of Examples 1-10 and for Comparison Examples C1-C4. Comparison Examples C1-C4 were commercially available directly compressible guaifenesin compositions. Particle size distribution was measured by sieve analysis using screens of the indicated mesh sizes. Bulk density was measured using a VanKel cylinder. Moisture content was measured by Karl Fischer titration. Flow properties were measured using a VanKel flowmeter with a strip chart recorder. […] Results are given below in TABLES 1A, 1B and 1C

[2] = Bulk density, VanKel cylinder; type: physicochemical
Experimental: as §1

Row | % CR (cumulative amount retained) ([1]; US Mesh 20 (850 μm)) [%] | % R (amount retained on screen) ([1]; US Mesh 20 (850 μm)) [%] | % CR (cumulative amount retained) ([1]; US Mesh 40 (425 μm)) [%] | % R (amount retained on screen) ([1]; US Mesh 40 (425 μm)) [%] | % CR (cumulative amount retained) ([1]; US Mesh 60 (250 μm)) [%] | % R (amount retained on screen) ([1]; US Mesh 60 (250 μm)) [%] | % CR (cumulative amount retained) ([1]; US Mesh 80 (180 μm)) [%] | % R (amount retained on screen) ([1]; US Mesh 80 (180 μm)) [%] | % CR (cumulative amount retained) ([1]; US Mesh 100 (150 μm)) [%] | % R (amount retained on screen) ([1]; US Mesh 100 (150 μm)) [%] | % CR (cumulative amount retained) ([1]; US Mesh 200 (75 μm)) [%] | % R (amount retained on screen) ([1]; US Mesh 200 (75 μm)) [%] | % CR (cumulative amount retained) ([1]; US Mesh 325 (45 μm)) [%] | % R (amount retained on screen) ([1]; US Mesh 325 (45 μm)) [%] | % CR (cumulative amount retained) ([1]; pan (<45 μm)) [%] | % R (amount retained) ([1]; pan (<45 μm)) [%] | Bulk Density [2] [g/cc] | Compound
1 | 0 | 0 | 0 | 0 | 0.8 | 0.8 | 3.2 | 2.4 | 7.6 | 4.4 | 38.4 | 30.8 | 76.8 | 38.4 | 100 | 23.2 | 0.45 | COc1ccccc1OCC(O)CO (single isomer, unassigned) [GP-A, guaifenesin]
2 | 0 | 0 | 0.4 | 0.4 | 0.4 | 0 | 2.4 | 2.0 | 3.2 | 0.8 | 11.2 | 8.0 | 58.0 | 46.8 | 100 | 42.0 | 0.41 | COc1ccccc1OCC(O)CO (single isomer, unassigned) [GP-B, guaifenesin]
3 | 0 | 0 | 2.0 | 2.0 | 3.2 | 1.2 | 3.2 | 0 | 4.0 | 0.8 | 11.2 | 7.2 | 77.6 | 66.4 | 100 | 22.4 | 0.35 | COc1ccccc1OCC(O)CO (single isomer, unassigned) [GP-C, guaifenesin]
4 | 0 | 0 | 0 | 0 | 0 | 0 | 3.2 | 3.2 | 9.6 | 6.4 | 60.0 | 50.4 | 89.6 | 29.6 | 100 | 10.4 | 0.40 | COc1ccccc1OCC(O)CO (single isomer, unassigned) [GP-D, guaifenesin]
